For data set [1], the target named is T1, SACOL2570 (putative galactoside O-acetyltransferase) (Staphylococcus aureus, UniProt Q5HCZ5). Kind of data set: ITC, […] stoichiometry. Type of data set: binding. In general terms: Isothermal titration calorimetry measures the heat released or taken up as one component is titrated into another.
The target of data set [2] is T1, SACOL2570 (putative galactoside O-acetyltransferase). Briefly: crystal structure. Type of data set: binding.
The data set “crystal structure” deals with the molecule itself. Briefly: crystal structure.

The molecule `CC(=O)SCCNC(=O)CCNC(=O)[C@H](O)C(C)(C)COP(=O)(O)OP(=O)(O)OC[C@H]1O[C@@H](n2cnc3c(N)ncnc32)[C@H](O)[C@@H]1OP(=O)(O)O` [AcCoA] had a Kd in data set [1] of 460 ± 35 µM.

In turn, `CC(C)(COP(=O)(O)OP(=O)(O)OC[C@H]1O[C@@H](n2cnc3c(N)ncnc32)[C@H](O)[C@@H]1OP(=O)(O)O)[C@@H](O)C(=O)NCCC(=O)NCCS` [CoA] came in with a Kd in data set [2] of 660 ± 13 µM.

B1: putative galactoside O-acetyltransferase SACOL2570 from Staphylococcus aureus subsp. COL (enzyme)
chain: MTEKEKMLAEKWYDANFDQYLINERARAKDICFELNHTRPSATNKRKELIDQLFQTTTDNVSISIPFDTDYGWNVKLGKNVYVNTNCYFMDGGQITIGDNVFIGPNCGFYTATHPLNFHHRNEGFEKAGPIHIGSNTWFGGHVAVLPGVTIGEGSVIGAGSVVTKDIPPHSLAVGNPCKVVRKIDNDLPSETLNDETIK
modifications: selenomethionine (Se-Met-SACOL2570) in the protein of the apo crystals (PDB 3FTT) only
Regarding B1, the “stoichiometry N” value in “crystal structure” amounted to 3.

What is called Kd is the constant that tells how readily two partners part at equilibrium. As usually defined, the stoichiometry N is the number of molecules, sites or subunits per partner or assembly.

For the origin of these results see paper PMC3923901 (Journal of structural and functional genomics, 2013).
